Key:
[1] = target: KHK-A (Homo sapiens (Human), UniProt P50053); test: Assay D: KHK assay with 1 nM human KHK-A; conditions: read-out: IC50 (nM) Assay D 1 nM KHK-A, 8 mM fructose, 0.2 mM ATP, avg of (#) runs
Source text: (§1) A screening assay was developed for KHK involving a coupled enzyme system which used the product of the KHK reaction to drive an absorbance signal in kinetic mode. KHK takes fructose and ATP and converts it to F1P and ADP. ADP then serves as substrate to pyruvate kinase which converts PEP to pyruvate which is then reduced to lactate by lactate dehydrogenase with the concomitant oxidation of NADH to NAD+. The resulting depletion of NADH was monitored by measuring absorbance at 340 nm.
A fourth assay, referred to as Assay D, was performed using human KHK-A to assess the potency of compounds in inhibiting activity of this enzyme. […] Reaction rates and IC50 values were calculated as described above.

[2] = target: T1, KHK-C (Homo sapiens (Human), UniProt P50053); test: Assay A: coupled-enzyme KHK absorbance assay, 10 nM KHK-C; conditions: 10 nM KHK-C, 0.8 mM fructose, 0.2 mM ATP, avg of (#) runs
Source text: as §1
(§2) Recombinant human KHK-C and KHK-A were expressed in E. coli as a His-tagged fusion protein and purified using Ni-NTA chromatography.
Compounds were prepared in DMSO as 4 mM stocks, diluted using an 11-point half-log scheme on a Biomek FX (Beckman Coulter), and incubated at rt for 30 minutes with the reaction mixture containing 50 mM HEPES, pH 7.4, 140 mM KCl, 3.5 mM MgCl2, 0.8 mM fructose, 2 mM TCEP, 0.8 mM PEP, 0.7 mM NADH, 0.01% Triton X-100, 30 U/mL pyruvate kinase-lactate dehydrogenase, and 10 nM purified KHK-C. The compound concentration in each well ranged from 1 nM to 100 μM. The reaction was initiated with the addition of 0.2 mM ATP. The absorbance was measured for 30 minutes on a SpectraMax reader (Molecular Devices) after ATP was added. The concentrations provided are based on the final mixture volume of 40 μL (referred to as the final concentration).
Controls: N8-(cyclopropylmethyl)-N4-(2-(methylthio)phenyl)-2-(piperazin-1-yl)pyrimido[5,4-d]pyrimidine-4,8-diamine at 2 μM final concentration was used as high percent effect (HPE) control, and 2.5% DMSO which was present in all reaction wells was used as zero percent effect (ZPE) control. Reaction rates were obtained for 300-1800 seconds time window in units of 1000*AU/min (absorbance unit per minute), and average values for ZPE and HPE controls from 16 wells each were calculated, AveZPE and AveHPE, respectively.
Percent inhibition (% inhibition) was calculated for each well using this equation:
For each compound tested, the IC50 provided is the average based on at least two separate assays conducted on separate days.

[3] = target: T1, KHK-C; test: Assay B: KHK assay with 1 nM KHK-C, absorbance for 3 hours
Source text: as §1
The reaction was initiated with addition of 0.2 mM ATP, and the absorbance was monitored for 3 hours at 340 nm. Reaction rates and IC50 values were calculated as described above.

[4] = target: T1, KHK-C; test: Assay C: KHK assay at high fructose (8 mM) and ATP (2 mM), 1 nM KHK-C; type: biochemical
Source text: as §1, §2
A third KHK assay, referred to as Assay C, was performed at high fructose and ATP concentrations, conditions that would be more consistent with physiological concentrations of the natural substrates of the KHK enzyme. Assay C was conducted as described above for Assay B except using 8 mM fructose and 2 mM ATP, and compound concentration range of 10 pM to 1 μM or 50 pM to 5 μM using half-log dilution scheme.

[5] = read-out: IC50 (nM) Assay A 10 nM KHK-C
[6] = read-out: IC50 (nM) Assay A (Table 4)
[7] = read-out: IC50 (nM) Assay B 1 nM KHK-C, 1 nM KHK-C, 0.2 mM ATP, 3 hours, avg of (#) runs
[8] = read-out: IC50 (nM) Assay C 1 nM KHK-C, 8 mM fructose, 2 mM ATP, avg of (#) runs

KHK-A, sequence (P50053 other isoform, or with tags, fused parts or gaps): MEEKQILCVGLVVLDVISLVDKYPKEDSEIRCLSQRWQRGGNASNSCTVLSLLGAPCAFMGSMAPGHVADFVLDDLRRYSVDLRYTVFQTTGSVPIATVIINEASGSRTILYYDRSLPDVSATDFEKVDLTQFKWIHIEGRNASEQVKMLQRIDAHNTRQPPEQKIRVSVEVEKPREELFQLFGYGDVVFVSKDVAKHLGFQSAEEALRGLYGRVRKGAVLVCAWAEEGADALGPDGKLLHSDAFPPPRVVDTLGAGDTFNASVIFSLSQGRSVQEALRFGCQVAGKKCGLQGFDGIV
T1 sequence (P50053 whole entry): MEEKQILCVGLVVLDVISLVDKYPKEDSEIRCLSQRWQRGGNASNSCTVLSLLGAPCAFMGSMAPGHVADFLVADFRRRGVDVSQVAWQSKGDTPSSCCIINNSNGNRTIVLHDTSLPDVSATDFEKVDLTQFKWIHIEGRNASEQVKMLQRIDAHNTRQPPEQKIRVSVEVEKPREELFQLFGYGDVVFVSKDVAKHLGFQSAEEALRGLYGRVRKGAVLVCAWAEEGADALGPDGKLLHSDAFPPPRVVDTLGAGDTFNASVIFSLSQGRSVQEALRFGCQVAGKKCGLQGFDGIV

Row | SMILES | IC50 [2, 5] [nM] | IC50 [2, 6] [nM] | other results
1 | C[C@H]1CCN1c1nc(C(F)F)c(Cl)c(N2C[C@@H]3[C@@H](CC(=O)O)[C@@H]3C2)n1 [Example 40, [(1R,5S,6R)-3-{5-chloro-6-(difluoromethyl)-2-[(2S)-2-methylazetidin-1-yl]pyrimidin-4-yl}-3-azabicyclo[3.1.0]hex-6-yl]acetic acid] | 11.1 | 11.1 | IC50 [1]: 37.9 nM; IC50 [3, 7]: 3.7 nM
2 | C[C@H]1[C@H](O)CN1c1nc(N2C[C@@H]3[C@@H](CC(=O)O)[C@@H]3C2)c(F)c(C(C)(F)F)c1C#N [Example 50, [(1R,5S,6R)-3-{5-cyano-4-(1,1-difluoroethyl)-3-fluoro-6-[(2S,3R)-3-hydroxy-2-methylazetidin-1-yl]pyridin-2-yl}-3-azabicyclo[3.1.0]hex-6-yl]acetic acid] | 4.4 | 4.4 | IC50 [3, 7]: 1.5 nM; IC50 [4, 8]: 2.6 nM
3 | C[C@H]1[C@H](O)CN1c1nc(N2C[C@@H]3[C@@H](CC(=O)O)[C@@H]3C2)c(Cl)c(C(F)(F)F)c1C#N [Example 2, [(1R,5S,6R)-3-{3-chloro-5-cyano-6-[(2S,3R)-3-hydroxy-2-methylazetidin-1-yl]-4-(trifluoromethyl)pyridin-2-yl}-3-azabicyclo[3.1.0]hex-6-yl]acetic acid] | 6.8 |  | IC50 [3]: 1.5 nM; IC50 ([4]; 8 mM fructose, 2 mM ATP, avg of (#) runs): 3.6 nM
4 | Cc1c(N2C[C@@H]3[C@@H](CC(=O)O)[C@@H]3C2)nc(N2CC[C@@H]2C)nc1C(F)(F)F [Example 42, [(1R,5S,6R)-3-{5-methyl-2-[(2S)-2-methylazetidin-1-yl]-6-(trifluoromethyl)pyrimidin-4-yl}-3-azabicyclo[3.1.0]hex-6-yl]acetic acid] | 8.8 | 8.8 | IC50 [1]: 10.5 nM; IC50 [3, 7]: 2.4 nM
5 | Cc1c(C(F)F)nc(N2CC[C@@H]2C)nc1N1C[C@@H]2[C@@H](CC(=O)O)[C@@H]2C1 [Example 43, [(1R,5S,6R)-3-{6-(difluoromethyl)-5-methyl-2-[(2S)-2-methylazetidin-1-yl]pyrimidin-4-yl}-3-azabicyclo[3.1.0]hex-6-yl]acetic acid] | 17.8 | 17.8 | IC50 [1]: 48.6 nM; IC50 [3, 7]: 8 nM
6 | C[C@H]1[C@H](O)CN1c1nc(N2C[C@@H]3[C@@H](CC(=O)O)[C@@H]3C2)c(Cl)c(C(F)(F)F)n1 [Example 16, [(1R,5S,6R)-3-{5-chloro-2-[(2S,3R)-3-hydroxy-2-methylazetidin-1-yl]-6-(trifluoromethyl)pyrimidin-4-yl}-3-azabicyclo[3.1.0]hex-6-yl]acetic acid] |  | 6.4 | 
7 | Cc1c(N2C[C@@H]3[C@@H](CC(=O)O)[C@@H]3C2)nc(N2C[C@@H](O)[C@@H]2C)nc1C(F)(F)F [Example 24, [(1R,5S,6R)-3-{2-[(2S,3R)-3-hydroxy-2-methylazetidin-1-yl]-5-methyl-6-(trifluoromethyl)pyrimidin-4-yl}-3-azabicyclo[3.1.0]hex-6-yl]acetic acid] | 9.7 | 9.7 | IC50 [1]: 12.1 nM; IC50 [3, 7]: 3.3 nM; IC50 [4, 8]: 11 nM
8 | C[C@@H]1N(c2nc(N3C[C@@H]4[C@@H](CC(=O)O)[C@@H]4C3)cc(C(F)(F)F)n2)C[C@@]1(C)O [Example 22, [(1R,5S,6R)-3-{2-[(2S,3R)-3-hydroxy-2,3-dimethylazetidin-1-yl]-6-(trifluoromethyl)pyrimidin-4-yl}-3-azabicyclo[3.1.0]hex-6-yl]acetic acid] |  | 703 | 
9 | N#Cc1c(C(F)F)cc(N2C[C@@H]3[C@@H](CC(=O)O)[C@@H]3C2)nc1NC1CCC1 [Example 51, {(1R,5S,6s)-3-[5-cyano-6-(cyclobutylamino)-4-(difluoromethyl)pyridin-2-yl]-3-azabicyclo[3.1.0]hex-6-yl}acetic acid] |  | 150 | 
10 | Cc1c(C(F)F)nc(N2C[C@@](C)(O)[C@@H]2C)nc1N1C[C@@H]2[C@@H](CC(=O)O)[C@@H]2C1 [Example 25, [(1R,5S,6R)-3-{6-(difluoromethyl)-2-[(2S,3R)-3-hydroxy-2,3-dimethylazetidin-1-yl]-5-methylpyrimidin-4-yl}-3-azabicyclo[3.1.0]hex-6-yl]acetic acid] |  | 259 | 
11 | N#Cc1c(C(F)F)cc(N2C[C@@H]3[C@@H](CC(=O)O)[C@@H]3C2)nc1N1CCCC1 [Example 37, {(1R,5S,6s)-3-[5-cyano-4-(difluoromethyl)-6-(pyrrolidin-1-yl)pyridin-2-yl]-3-azabicyclo[3.1.0]hex-6-yl}acetic acid] |  | 58.3 | 
12 | C[C@H]1[C@H](O)CN1c1nc(C(F)F)cc(N2C[C@@H]3[C@@H](CC(=O)O)[C@@H]3C2)n1 [Example 14, [(1R,5S,6R)-3-{6-(difluoromethyl)-2-[(2S,3R)-3-hydroxy-2-methylazetidin-1-yl]pyrimidin-4-yl}-3-azabicyclo[3.1.0]hex-6-yl]acetic acid] |  | 152 | 
13 | C[C@H]1[C@H](O)CN1c1nc(N2C[C@@H]3[C@@H](CC(=O)O)[C@@H]3C2)nc(C(F)(F)F)n1 [Example 30, [(1R,5S,6R)-3-{4-[(2S,3R)-3-hydroxy-2-methylazetidin-1-yl]-6-(trifluoromethyl)-1,3,5-triazin-2-yl}-3-azabicyclo[3.1.0]hex-6-yl]acetic acid] |  | 509 | 
14 | N#Cc1c(C(F)(F)F)cc(N2C[C@@H]3[C@@H](CC(=O)O)[C@@H]3C2)nc1N1CCC1 [Example 46, {(1R,5S,6s)-3-[6-(azetidin-1-yl)-5-cyano-4-(trifluoromethyl)pyridin-2-yl]-3-azabicyclo[3.1.0]hex-6-yl}acetic acid] |  | 21.5 | 
15 | CCc1c(N2C[C@@H]3[C@@H](CC(=O)O)[C@@H]3C2)nc(N2C[C@@H](O)[C@@H]2C)nc1C(F)(F)F [Example 8, [(1R,5S,6R)-3-{5-ethyl-2-[(2S,3R)-3-hydroxy-2-methylazetidin-1-yl]-6-(trifluoromethyl)pyrimidin-4-yl}-3-azabicyclo[3.1.0]hex-6-yl]acetic acid] | 53.8 |  | 
16 | C[C@H]1[C@H](O)CN1c1nc(N2C[C@@H]3[C@@H](CC(=O)O)[C@@H]3C2)c(C#N)c(C(F)(F)F)n1 [Example 53, [(1R,5S,6R)-3-{5-cyano-2-[(2S,3R)-3-hydroxy-2-methylazetidin-1-yl]-6-(trifluoromethyl)pyrimidin-4-yl}-3-azabicyclo[3.1.0]hex-6-yl]acetic acid] |  | 21 | 
17 | C[C@H]1CCN1c1nc(N2C[C@@H]3[C@@H](CC(=O)O)[C@@H]3C2)cc(C(F)F)c1C#N [Example 19, [(1R,5S,6R)-3-{5-cyano-4-(difluoromethyl)-6-[(2S)-2-methylazetidin-1-yl]pyridin-2-yl}-3-azabicyclo[3.1.0]hex-6-yl]acetic acid] |  | 7.2 | 
18 | C[C@@H]1N(c2nc(N3C[C@@H]4[C@@H](CC(=O)O)[C@@H]4C3)c(Cl)c(C(F)F)c2C#N)C[C@@]1(C)O [Example 21, [(1R,5S,6R)-3-{3-chloro-5-cyano-4-(difluoromethyl)-6-[(2S,3R)-3-hydroxy-2,3-dimethylazetidin-1-yl]pyridin-2-yl}-3-azabicyclo[3.1.0]hex-6-yl]acetic acid] |  | 8.7 | 
19 | C[C@H]1[C@H](O)CN1c1nc(N2C[C@@H]3[C@@H](CC(=O)O)[C@@H]3C2)c(C2CC2)c(C(F)(F)F)n1 [Example 7, [(1R,5S,6R)-3-{5-cyclopropyl-2-[(2S,3R)-3-hydroxy-2-methylazetidin-1-yl]-6-(trifluoromethyl)pyrimidin-4-yl}-3-azabicyclo[3.1.0]hex-6-yl]acetic acid] | 111 |  | 
20 | COc1c(C(F)F)nc(N2C[C@@H](O)[C@@H]2C)nc1N1C[C@@H]2[C@@H](CC(=O)O)[C@@H]2C1 [Example 29, [(1R,5S,6R)-3-{6-(difluoromethyl)-2-[(2S,3R)-3-hydroxy-2-methylazetidin-1-yl]-5-methoxypyrimidin-4-yl}-3-azabicyclo[3.1.0]hex-6-yl]acetic acid] |  | 265 | 
21 | C[C@H]1[C@H](O)CN1c1cc(N2C[C@@H]3[C@@H](CC(=O)O)[C@@H]3C2)cc(C(F)(F)F)n1 [Example 27, [(1R,5S,6R)-3-{2-[(2S,3R)-3-hydroxy-2-methylazetidin-1-yl]-6-(trifluoromethyl)pyridin-4-yl}-3-azabicyclo[3.1.0]hex-6-yl]acetic acid] |  | 109 | 
22 | C[C@H]1[C@H](O)CN1c1cc(N2C[C@@H]3[C@@H](CC(=O)O)[C@@H]3C2)c(Cl)c(C(C)(F)F)n1 [Example 12, [(1R,5S,6R)-3-{3-chloro-2-(1,1-difluoroethyl)-6-[(2S,3R)-3-hydroxy-2-methylazetidin-1-yl]pyridin-4-yl}-3-azabicyclo[3.1.0]hex-6-yl]acetic acid] | 289 |  | 
23 | C[C@H]1C[C@H](O)CN1c1nc(N2C[C@@H]3[C@@H](CC(=O)O)[C@@H]3C2)cc(C(F)(F)F)c1C#N [Example 23, [(1R,5S,6R)-3-{5-cyano-6-[(2S,4S)-4-hydroxy-2-methylpyrrolidin-1-yl]-4-(trifluoromethyl)pyridin-2-yl}-3-azabicyclo[3.1.0]hex-6-yl]acetic acid] |  | 11.6 | 

— patent US10174007B2, “Substituted 3-azabicyclo[3.1.0]hexanes as ketohexokinase inhibitors” (Pfizer Inc., priority 2015, dated 2019)
